Key:
Experiment in all cases: relative viability (nuclei count vs DMSO), 5 days (fraction); higher = more cells survive
Seliciclib + Vorinostat = compound: CC[C@H](CO)Nc1nc(NCc2ccccc2)c2ncn(C(C)C)c2n1 [Seliciclib] + O=C(CCCCCCC(=O)Nc1ccccc1)NO [Vorinostat] (partner 1 µM)
Outline: (§1)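 Lung cancer cell lines in 1536-well plates were dosed by pin tool the day after seeding, either with one drug alone or with a fixed anchor-drug dose plus five library-drug doses (not always all listed) in √10 steps. After 5 days, cells were fixed and their nuclei stained in one step (final 0.05% Triton X-100, 1% formaldehyde, 1 ug/ml Hoechst), then counted on 4× images. Relative viability is the nuclei count in treated wells divided by that in vehicle wells. Values are medians of duplicate plates.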

Seliciclib + Dasatinib = compound: CC[C@H](CO)Nc1nc(NCc2ccccc2)c2ncn(C(C)C)c2n1 [Seliciclib] + Cc1nc(Nc2ncc(C(=O)Nc3c(C)cccc3Cl)s2)cc(N2CCN(CCO)CC2)n1 [Dasatinib] (partner 0.075 µM)
Outline: as §1

Seliciclib + Crizotinib = compound: CC[C@H](CO)Nc1nc(NCc2ccccc2)c2ncn(C(C)C)c2n1 [Seliciclib] + C[C@@H](Oc1cc(-c2cnn(C3CCNCC3)c2)cnc1N)c1c(Cl)ccc(F)c1Cl [Crizotinib] (partner 1 µM)
Outline: as §1

Seliciclib + Pictilisib = compound: CC[C@H](CO)Nc1nc(NCc2ccccc2)c2ncn(C(C)C)c2n1 [Seliciclib] + CS(=O)(=O)N1CCN(Cc2cc3nc(-c4cccc5[nH]ncc45)nc(N4CCOCC4)c3s2)CC1 [Pictilisib] (partner 1 µM)
Outline: as §1

| Cell Line | relative viability (Seliciclib + Vorinostat; first compound 0.08 µM) | relative viability (Seliciclib + Vorinostat; first compound 0.253 µM) | relative viability (Seliciclib + Vorinostat; first compound 0.8 µM) | relative viability (Seliciclib + Vorinostat; first compound 2.53 µM) | relative viability (Seliciclib + Vorinostat; first compound 8 µM) | relative viability (Seliciclib + Dasatinib; first compound 0.08 µM) | relative viability (Seliciclib + Dasatinib; first compound 0.253 µM) | relative viability (Seliciclib + Dasatinib; first compound 0.8 µM) | relative viability (Seliciclib + Dasatinib; first compound 2.53 µM) | relative viability (Seliciclib + Dasatinib; first compound 8 µM) | relative viability (Seliciclib + Crizotinib; first compound 0.08 µM) | relative viability (Seliciclib + Crizotinib; first compound 0.253 µM) | relative viability (Seliciclib + Crizotinib; first compound 0.8 µM) | relative viability (Seliciclib + Crizotinib; first compound 2.53 µM) | relative viability (Seliciclib + Crizotinib; first compound 8 µM) | relative viability (Seliciclib + Pictilisib; first compound 0.08 µM) | relative viability (Seliciclib + Pictilisib; first compound 0.253 µM) | relative viability (Seliciclib + Pictilisib; first compound 0.8 µM) | relative viability (Seliciclib + Pictilisib; first compound 2.53 µM) | relative viability (Seliciclib + Pictilisib; first compound 8 µM) |
| --- | --- | --- | --- | --- | --- | --- | --- | --- | --- | --- | --- | --- | --- | --- | --- | --- | --- | --- | --- | --- |
| NCI-H23 | 0.648 | 0.554 | 0.618 | 0.367 | 0.499 | 0.855 | 0.785 | 0.756 | 0.296 | 0.643 | 0.454 | 0.427 | 0.432 | 0.42 | 0.48 | 0.507 | 0.462 | 0.395 | 0.283 | 0.365 |
| NCI-H322M | 0.894 | 1.03 | 0.87 | 0.773 | 0.521 | 0.257 | 0.267 | 0.263 | 0.232 | 0.219 | 0.85 | 1.06 | 0.839 | 1.06 | 0.554 | 0.523 | 0.583 | 0.494 | 0.449 | 0.379 |
| NCI-H358 | 0.726 | 0.942 | 0.513 | 0.711 | 0.267 | 0.196 | 0.153 | 0.148 | 0.129 | 0.137 | 0.54 | 0.709 | 0.546 | 0.544 | 0.246 | 0.346 | 0.408 | 0.289 | 0.312 | 0.216 |
| NCI-H441 | 0.844 | 0.418 | 0.898 | 0.771 | 0.639 | 0.732 | 0.848 | 0.536 | 0.339 | 0.601 | 0.896 | 0.631 | 0.833 | 0.66 | 0.519 | 0.49 | 0.635 | 0.531 | 0.469 | 0.377 |
| NCI-H460 | 0.709 | 0.809 | 0.671 | 0.901 | 0.552 | 0.524 | 0.391 | 0.357 | 0.288 | 0.363 | 0.787 | 0.821 | 0.837 | 1.36 | 0.722 | 0.367 | 0.376 | 0.275 | 0.248 | 0.252 |
| NCI-H520 | 0.704 | 0.635 | 0.802 | 0.725 | 0.632 | 0.167 |  | 0.258 | 0.219 | 0.178 | 0.85 | 0.552 | 0.638 | 0.921 | 0.589 | 0.305 | 0.326 | 0.287 | 0.318 | 0.252 |
| NCI-H596 | 0.635 |  | 0.56 | 0.506 | 0.47 | 0.658 |  | 0.594 | 0.606 | 0.515 | 0.959 | 0.759 | 0.981 | 1.05 | 0.988 | 0.376 | 0.36 | 0.403 | 0.421 | 0.415 |
| NCI-H647 | 0.615 | 0.268 | 0.639 | 0.299 | 0.128 | 0.225 |  | 0.209 | 0.166 | 0.189 | 1.07 | 1.01 | 1.04 | 1.29 | 0.852 | 0.367 | 0.45 | 0.25 | 0.296 | 0.248 |
| NCI-H650 | 0.403 | 0.36 | 0.638 | 0.3 | 0.341 | 0.447 | 0.387 | 0.596 | 0.262 | 0.39 | 0.65 | 0.713 | 0.84 |  | 0.543 | 0.887 | 0.869 | 1.04 |  | 0.772 |
| NCI-H661 | 0.721 | 0.918 | 0.748 | 0.703 | 0.565 | 0.832 | 1.03 | 0.9 | 0.739 | 0.547 | 0.98 | 1.12 | 0.939 |  | 0.894 | 0.362 | 0.404 | 0.375 | 0.295 | 0.354 |
| NCI-H727 | 1.19 | 1.25 | 1.04 | 0.744 | 1.07 | 0.481 | 0.504 | 0.342 | 0.307 | 0.336 | 0.813 | 0.882 | 0.777 | 0.829 | 0.823 | 0.43 | 0.338 | 0.197 | 0.232 | 0.296 |
| NCI-H838 | 0.649 | 0.683 | 0.666 | 0.595 | 0.342 | 0.341 | 0.198 | 0.26 | 0.218 | 0.303 | 0.806 | 0.766 | 0.841 | 0.936 | 0.673 | 0.469 | 0.468 | 0.432 | 0.408 | 0.294 |
| NCI-H1355 | 0.635 | 0.605 | 0.647 | 0.523 | 0.5 | 0.755 | 0.585 | 0.683 | 0.544 | 0.686 | 1.01 | 1.05 | 1.13 | 1.16 | 0.998 | 0.426 | 0.452 | 0.359 | 0.452 | 0.429 |
| NCI-H1437 | 0.811 | 0.901 | 0.69 | 0.633 | 0.374 | 0.465 | 0.438 | 0.323 | 0.233 | 0.335 | 0.861 | 0.916 | 0.951 | 0.97 | 0.834 | 0.484 | 0.377 | 0.439 | 0.394 | 0.331 |
| NCI-H1650 | 0.474 | 0.511 | 0.558 | 0.526 | 0.326 | 0.3 | 0.344 | 0.304 | 0.247 | 0.285 | 0.885 | 1.12 | 0.924 | 0.847 | 0.607 | 0.579 | 0.631 | 0.526 | 0.466 | 0.354 |
| NCI-H1651 | 0.515 | 0.551 | 0.542 | 0.477 | 0.457 | 0.403 | 0.399 | 0.536 | 0.302 | 0.382 | 0.873 | 0.861 | 0.831 | 0.814 | 0.82 | 0.484 | 0.636 | 0.563 | 0.45 | 0.487 |
| NCI-H1666 | 1.01 | 1 | 0.978 | 1.01 | 0.749 | 0.732 | 0.888 | 0.875 | 0.605 | 0.551 | 1.08 | 0.953 | 1.05 | 0.852 | 0.46 | 0.33 | 0.526 | 0.478 | 0.353 | 0.439 |

From the supplement of paper PMC10307832
